ChEMBL document CHEMBL5338731, “Development of Neuropeptide Hemokinin-1 Analogues with Antimicrobial and Wound-Healing Activity” (J Med Chem, 2023)

Test: Hemolytic activity in mouse erythrocytes assessed as haemoglobin release at 10 uM incubated for 1 hrs by microplate reader method
Format: toxicity, cell-based, Erythrocyte
Conditions: read-out: Activity

`CC[C@H](C)[C@H](NC(=O)CN)C(=O)NCC(=O)N[C@@H](C)C(=O)N[C@H](C(=O)N[C@@H](CC(C)C)C(=O)N[C@@H](CCCCN)C(=O)N[C@H](C(=O)N[C@@H](CC(C)C)C(=O)N[C@H](C(=O)N[C@H](C(=O)NCC(=O)N[C@@H](CC(C)C)C(=O)N1CCC[C@H]1C(=O)N[C@@H](C)C(=O)N[C@@H](CC(C)C)C(=O)N[C@H](C(=O)N[C@@H](CO)C(=O)N[C@@H](Cc1c[nH]c2ccccc12)C(=O)N[C@H](C(=O)N[C@@H](CCCCN)C(=O)N[C@@H](CCCNC(=N)N)C(=O)N[C@@H](CCCCN)C(=O)N[C@@H](CCCNC(=N)N)C(=O)N[C@@H](CCC(N)=O)C(=O)N[C@@H](CCC(N)=O)C(N)=O)[C@@H](C)CC)[C@@H](C)CC)[C@@H](C)O)[C@@H](C)O)C(C)C)C(C)C` [MELITTIN] showed a hemolysis at 1 h, 10 µM of 58.8%.
